In patent US9163018B2, “Method of treatment of age-related macular degeneration (AMD)” (Prana Biotechnology Limited, priority 2006, dated 2015):
Where two headings read alike, the source gives them in different places.

How the values were obtained:
[1] = molecular target: T1, Aβ 1-42 (Homo sapiens, UniProt P05067); assay: Fluorometric H2O2 assay (inhibition of Abeta H2O2 production); format: biochemical
T1 construct: The reaction solutions contained Aβ 1-42 at concentrations
In short: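 Reactions in PBS pH 7.4 at 37 C for 60 min, containing Aβ, copper and test compound. H2O2 output read as fluorescence of HRP-coupled deacetylated DCF. Fluorescence converted to H2O2 concentration via H2O2 standards.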

[2] = tested on: primary cortical neuronal cultured cells; assay: Test compound cytotoxicity, MTS assay, primary cortical neuronal cultures; format: cell-based, mouse; settings: for Cytotox (% viable) Neuronal cells at 1 μM: 1 μM test compound; for Cytotox (% viable) Neuronal cells at 10 μM: 10 μM test compound
In short: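 Primary cortical neurons were cultured five days in Neurobasal/B27, then exposed on day six to compounds (from 2.5 mM DMSO stocks) in medium minus antioxidants, in triplicate for 4 days at 37° C. Viability was measured by MTS, 2 h at 37° C, absorbance at 560 nm.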

[3] = tested on: Abeta in extract of post-mortem human AD brain tissue; assay: BAS: human brain amyloid solubilization assay; format: biochemical
Description: Assay 5. Human Brain Amyloid Solubilization Assay
This assay was performed in order to assess the ability of a test compound to mobilise Aβ, as an example form of amyloid, from the insoluble to the soluble phase of an extract of tissue from post mortem human AD brain.
Up to 0.5 g of plaque-bearing cortex without meninges was homogenized using a DIAX 900 homogenizer (Hendolph and Co, Kelheim, Germany) or other suitable device for three 30-second periods at full speed in 2 ml of ice-cold phosphate-buffered saline, pH 7.4. To obtain the phosphate-buffered saline-extractable fraction, the homogenate was centrifuged at 100,000×g for 30 min and the supernatant removed. Alternatively, the tissue was freeze dried then pulverized to form a powder which was then weighed out into aliquots for extraction as above. Supernatant, either freeze-dried and resuspended or in unconcentrated form, was dissolved in 200 μl of Tris-Tricine sodium dodecyl sulfate (SDS) sample buffer pH 8.3 containing 8% SDS, 10% 2-mercaptoethanol. Aliquots (10 μl) were then boiled for 10 minutes before SDS-polyacrylamide gel electrophoresis. The insoluble fraction of the cortical samples was obtained by resuspending the initial pelleted sample in 1 ml of phosphate-buffered saline, A 50-μl aliquot of this suspension was then boiled in […] of sample buffer as above.
Tris-Tricine polyacrylamide gel electrophoresis was performed by loading appropriately diluted samples on to 10% to 20% gradient gels (Novex, San Diego, Calif.) followed by transfer on to 0.2-μm nitrocellulose membrane (Bio-Rad, Hercules, Calif.). Aβ was detected by using monoclonal antibody W02, which detects residues 5 through 8, […] (or another suitable antibody) in conjunction with horseradish peroxidase-conjugated rabbit anti-mouse IgG (Dako, Denmark), and visualized by using enhanced chemiluminescence (eg ECL; Amersham Life Science, Buckinghamshire, UK). Each gel included three lanes containing 0.5, 1, and 2 ng of synthetic Aβ40 (Keck Laboratory, Yale University, New Haven, Conn.) as reference standards.
Blot films were scanned by using a suitable imaging system such as the UVP gel documentation system, and densitometry performed using suitable software, eg UVP Labworks. The dynamic range of the film/scanner was determined by using a step tablet (No. 911ST600, Kodak, Rochester N.Y.), a calibrated film exposed by the manufacturer to provided steps of known increasing intensity. The quantifiable range of signal intensity for densitometric analysis of the mono- and dimeric Aβ bands was based on the comparison with a curve obtained by scanning and densitometry of the step tablet.
All samples were analyzed at least twice, and gel loadings and dilutions were adjusted to fit within the quantifiable region of the standard curve. The proportion of ‘soluble’ to ‘insoluble’ Aβ may be used to determine the efficiency of extraction of a test compound compared with the efficiency of a known compound. The insoluble Aβ being comprised of the pelletable fraction derived from the insoluble amyloid plaque from the above cortical samples and the soluble fraction comprising monomeric and/or oligomeric soluble Aβ.

[4] = molecular target: T2, Abeta:Zn (25:50 μM) Synthetic Aggregations (Homo sapiens, UniProt P05067); assay: Disaggregation of Abeta:Zn synthetic aggregates (ThT fluorescence); format: biochemical; settings: for Disaggregation % Aggregate reduction at 5 μM: 5 μM test compound
T2 construct: PB Compound Mediated Dissolution of Aggregated Abeta 1-42; purchased Keck Laboratory, Yale University School of Medicine
T2 sequence (P05067 672-713 limits assumed): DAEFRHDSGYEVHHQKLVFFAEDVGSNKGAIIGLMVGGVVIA
Description: PB Compound Mediated Dissolution of Aggregated Abeta 1-42
Abeta1-42, is available from the Keck Laboratory, Yale University School of Medicine. PBS (pH 6.6): Sigma Cat# D-8662. Zn(ZnCl2): BDH Cat#100884E. (Dissolved in water in 1 mM concentration) DMSO: Ajax Cat#2225. Thioflavin T: Sigma Cat# T-3516. (Dissolved in water in 1 mM concentration)
By way of example of an amyloid composition, Abeta is dissolved in distilled water and peptide concentration is assessed by measured absorption at 214 nm in UV spectrometer. An aggregation reactive mixture (per one concentration of one testing compound) is set us as follows: Abeta: 25 μM, ZnCl2 50 μM, ThT 50 μM, PBS to make up to 500 μl. The tube is wrapped with foil and incubated at 37 degrees by rotation for 24 hours. A serial dilution of each test compound is made up in DMSO, for example: 100 μM, 500 μM, 1000 μM, 2500 μM and 5000 μM. The final concentrations are 1, 5, 10, 25 and 50 μM, 5 μl of each of these compounds is placed in a centrifuge tube and 5 μl of DMSO is added to both negative and positive control tubes. 495 μl of aggregates (after 24 hours incubation) is added to the centrifuge tube. The negative control is PBS plus ZnCl2 and ThT and DMSO. The positive control is aggregates plus DMSO. The tubes are incubated at 37 degrees for further 2 hours with rotation. Samples are measured for ThT fluorescence using an LS55 (Perkin Elmer) fluorimeter in a cuvette (500 μl volume). The excitation wavelength is 450 nm and the emission wavelength is 480 nm. Data are analyzed using graph pad prism program. The tested compounds included so called “PB” compounds.

[5] = Toxicity, visual observations in mice; settings: 30 mg/kg; duration and visual observations
[6] = Mice plasma concentration after oral dose; format: in vivo; settings: 30 min to 4 h after single or repeat oral dose of 30 mg/kg
[7] = tested on: M17 human neuroblastoma cells; assay: Cytotoxicity, M17 human neuroblastoma cells; format: cell-based; settings: for Cytotox (% viable) M17 cells at 1 μM: 1 μM test compound; for Cytotox (% viable) M17 cells at 10 μM: 10 μM test compound
Description: Assay 3. MTS Assay for Cell Viability
Cell viability is determined using the MTS assay. Culture medium is replaced with fresh neurobasal medium plus B27 supplements minus antioxidants. 1/10th volume MTS solution (Cell Titre 96 Aqueous One, Promega Corporation) and incubated at 37° C., 2 hrs. 200 microliter aliquots are measured with a spectrophotometer at 560 nm.

[8] = concentration required to inhibit 50% of Abeta H2O2 production, read-out: H2O2 IC50
[9] = max effect across the concentration range, referenced to baseline PBS

T1 sequence (P05067 672-713 limits assumed): as above

SMILES	IC50 [1] [nM]	Cytotox (% viable) Neuronal cells at 1 μM [2] [%]	Cytotox (% viable) Neuronal cells at 10 μM [2] [%]	BAS max effect [3]	Disaggregation EC50 ([4]; Abeta:Zn 25:50 μM aggregates)	IC50 [1, 8] [nM]	BAS max effect [3, 9] [%]	Disaggregation % Aggregate reduction at 5 μM [4] [%]	EC50 ([4]; Abeta:Zn 25:50 μM aggregates) [nM]	Toxicity at 30 mg/kg [5]	Mice plasma concentration [6]	Cytotox (% viable) M17 cells at 1 μM [7] [%]	Cytotox (% viable) M17 cells at 10 μM [7] [%]
Oc1cccc2cccnc12 [PB 42]	700	93	36	BAS: 227% (1 μM- 100 μM)	Inactive								
Oc1c(Cl)cc(Cl)c2cccnc12 [PB 45]		98	75			400	387	36.1	8500				
CCn1cnc2c(O)c(I)ccc2c1=O [PB 1123]						290		25	910	10 days, none			
Br.CC(C)n1cnc2c(O)c(Cl)cc(Cl)c2c1=O [PB 1108]		104	71					46.5	> 20000	10 days, none	Up to 383 ng/ mL ng/mL	94.3	74.5
CN(C)Cc1ccc2c(Cl)cc(I)c(O)c2n1 [PB 1177]						290		79	2400	1 day, 3/4 deaths		97.9	24.4
Oc1c(Br)cc(Br)c2cccnc12 [PB 47]		100	94			500	412	50	5000				
CN(C)Cc1cnc2c(Cl)cc(Cl)c(O)c2n1.Cl [PB 1066]		92	95			> 10000		35	> 50000		Up to 1000 ng/mL in mice		
COc1ccc(-n2cnc3c(O)c(Cl)cc(Cl)c3c2=O)cn1 [PB 1093]		122	93					16	> 20000	10 days, none	Up to 80 ng/ mL ng/mL		
O=c1c2ccc(I)c(O)c2ncn1Cc1ccccn1 [PB 1122]						520		62.4	660	10 days, none	Up to 1538 ng/ mL ng/mL	97.5	79.5
